Drawing on patent US11419869B2, “Dosage forms and regimens for amino acid compounds” (Pliant Therapeutics, Inc., priority 2019, dated 2022), this text covers IC50 for 27 compounds.

Sequence of recombinant human integrin αvβ6 (P06756 31-992): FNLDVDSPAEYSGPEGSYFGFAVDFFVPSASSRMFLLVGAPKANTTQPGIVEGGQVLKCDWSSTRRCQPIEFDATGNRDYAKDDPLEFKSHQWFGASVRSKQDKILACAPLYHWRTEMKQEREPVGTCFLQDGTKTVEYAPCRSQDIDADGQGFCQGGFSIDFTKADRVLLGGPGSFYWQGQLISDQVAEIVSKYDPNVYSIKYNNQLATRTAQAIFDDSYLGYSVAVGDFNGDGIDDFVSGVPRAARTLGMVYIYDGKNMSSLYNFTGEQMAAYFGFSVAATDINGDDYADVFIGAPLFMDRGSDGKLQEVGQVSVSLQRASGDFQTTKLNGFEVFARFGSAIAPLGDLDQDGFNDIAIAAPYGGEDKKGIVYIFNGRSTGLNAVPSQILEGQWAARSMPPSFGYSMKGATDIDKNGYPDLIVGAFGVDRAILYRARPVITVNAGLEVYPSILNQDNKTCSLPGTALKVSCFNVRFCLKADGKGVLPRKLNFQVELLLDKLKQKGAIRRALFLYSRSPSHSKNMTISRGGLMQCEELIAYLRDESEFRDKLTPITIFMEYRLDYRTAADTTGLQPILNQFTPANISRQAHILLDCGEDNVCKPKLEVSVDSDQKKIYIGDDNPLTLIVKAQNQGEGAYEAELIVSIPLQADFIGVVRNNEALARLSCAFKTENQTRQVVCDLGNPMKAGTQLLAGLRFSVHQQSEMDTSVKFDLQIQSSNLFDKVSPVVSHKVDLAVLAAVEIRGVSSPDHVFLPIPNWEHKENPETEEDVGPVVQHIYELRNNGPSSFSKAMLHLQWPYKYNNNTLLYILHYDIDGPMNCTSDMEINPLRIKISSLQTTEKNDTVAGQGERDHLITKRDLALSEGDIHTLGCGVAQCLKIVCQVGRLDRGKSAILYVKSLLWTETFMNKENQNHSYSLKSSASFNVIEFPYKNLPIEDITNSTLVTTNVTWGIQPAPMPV
Sequence of recombinant human integrin αvβ6 (P18564 22-707): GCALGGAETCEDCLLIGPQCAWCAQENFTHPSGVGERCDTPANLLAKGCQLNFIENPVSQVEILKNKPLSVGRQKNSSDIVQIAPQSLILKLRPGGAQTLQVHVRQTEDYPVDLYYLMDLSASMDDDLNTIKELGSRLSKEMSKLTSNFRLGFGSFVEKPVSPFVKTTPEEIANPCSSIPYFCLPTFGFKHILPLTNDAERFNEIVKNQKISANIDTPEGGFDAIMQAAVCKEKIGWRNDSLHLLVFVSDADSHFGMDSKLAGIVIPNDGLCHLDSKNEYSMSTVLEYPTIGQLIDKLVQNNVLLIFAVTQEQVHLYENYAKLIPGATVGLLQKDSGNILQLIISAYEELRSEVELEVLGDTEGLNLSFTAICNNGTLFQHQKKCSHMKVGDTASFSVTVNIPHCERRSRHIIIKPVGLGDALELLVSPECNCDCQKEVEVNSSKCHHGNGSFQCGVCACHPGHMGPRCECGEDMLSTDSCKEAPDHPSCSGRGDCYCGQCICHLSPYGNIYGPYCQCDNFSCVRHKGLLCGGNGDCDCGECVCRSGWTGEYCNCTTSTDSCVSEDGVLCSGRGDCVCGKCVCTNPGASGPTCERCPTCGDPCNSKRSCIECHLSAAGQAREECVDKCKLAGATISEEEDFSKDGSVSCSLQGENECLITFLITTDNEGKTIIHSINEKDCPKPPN

This test deals with recombinant human integrin αvβ6 (Homo sapiens (Human), UniProt P06756+P18564). Kind of test: Solid Phase Integrin αvβ6 Binding Assay (Examples B1, B2). The note with it: TGFβ1 LAP ligand, values given in four ranges, read-out: αvβ6 Inhibition IC50 (nM)-range. The gist of the method:
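Plates coated with recombinant human αvβ6 (2 μg/mL) compete compound against recombinant TGFβ1 LAP (0.67 μg/mL) in TBS binding buffer with 0.5 mM MnCl2, 2 h at 25 °C. Bound LAP detected with biotin-anti-hLAP and peroxidase-streptavidin; IC50 by four-parameter logistic regression.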
For the compound `COCCN(CCCCc1ccc2c(n1)NCCC2)CC[C@H](Nc1cc(C(F)F)ncn1)C(=O)O` [Compound 23, (S)-2-((6-(difluoromethyl)pyrimidin-4-yl)amino)-4-((2-methoxyethyl) (4-(5,6,7,8-tetrahydro-1,8-naphthyridin-2-yl)butyl)amino) butanoic acid], the IC50 was less than 50 nM.

With `O=C(O)[C@H](CCN(CCCCc1ccc2c(n1)NCCC2)CCOc1ccccc1)Nc1cc(-c2ccccc2)ncn1` [Compound 93, (S)-4-((2-phenoxyethyl) (4-(5,6,7,8-tetrahydro-1,8-naphthyridin-2-yl)butyl)amino)-2-((6-phenylpyrimidin-4-yl)amino) butanoic acid], the IC50 was less than 50 nM.

For `CO[C@H](C)CN(CCCCc1ccc2c(n1)NCCC2)CC[C@H](Nc1ccncn1)C(=O)O` [Compound 106, (S)-4-(((R)-2-methoxypropyl) (4-(5,6,7,8-tetrahydro-1,8-naphthyridin-2-yl)butyl)amino)-2-(pyrimidin-4-ylamino) butanoic acid], the IC50 is less than 50 nM.

`O=C(O)[C@H](CCN(CCCCc1ccc2c(n1)NCCC2)CC(F)F)Nc1cc(-c2ccccc2)ncn1` [Compound 142, (S)-4-((2,2-difluoroethyl) (4-(5,6,7,8-tetrahydro-1,8-naphthyridin-2-yl)butyl)amino)-2-((6-phenylpyrimidin-4-yl)amino) butanoic acid]: the IC50 was more than 1000 nM.

Turning to `CS(=O)(=O)CCN(CCCCc1ccc2c(n1)NCCC2)CC[C@H](Nc1ncnc2ccccc12)C(=O)O` [Compound 27, (S)-4-((2-(methylsufonyl)ethyl) (4-(5,6,7,8-tetrahydro-1,8-naphthyridin-2-yl)butyl)amino)-2-(quinazolin-4-ylamino) butanoic acid], the IC50 was less than 50 nM.

Turning to `COC[C@@H](F)CN(CCCCc1ccc2c(n1)NCCC2)CC[C@H](Nc1ncnc2ccccc12)C(=O)O` [Compound 31, (S)-4-(((S)-2-fluoro-3-methoxypropyl) (4-(5,6,7,8-tetrahydro-1,8-naphthyridin-2-yl)butyl)amino)-2-(quinazolin-4-ylamino) butanoic acid], the IC50 was less than 50 nM.

With `O=C(O)[C@H](CCN(CCCCc1ccc2c(n1)NCCC2)CCOCC(F)(F)F)Nc1ncnc2ccccc12` [Compound 39, (S)-2-(quinazolin-4-ylamino)-4-((4-(5,6,7,8-tetrahydro-1,8-naphthyridin-2-yl)butyl) (2-(2,2,2-trifluoroethoxy)ethyl)amino) butanoic acid], the IC50 was less than 50 nM.

`N#Cc1cnc(N[C@@H](CCN(CCCCc2ccc3c(n2)NCCC3)CC(F)F)C(=O)O)nc1` [Compound 118, (S)-2-((5-cyanopyrimidin-2-yl)amino)-4-((2,2-difluoroethyl) (4-(5,6,7,8-tetrahydro-1,8-naphthyridin-2-yl)butyl)amino) butanoic acid]: the IC50 was more than 1000 nM.

For `CN(C)C(=O)CN(CCCCc1ccc2c(n1)NCCC2)CC[C@H](Nc1ncnc2c1cnn2C)C(=O)O` [Compound 140, (S)-4-((2-(dimethylamino)-2-oxoethyl) (4-(5,6,7,8-tetrahydro-1,8-naphthyridin-2-yl)butyl)amino)-2-((1-methyl-1H-pyrazolo[3,4-d]pyrimidin-4-yl)amino) butanoic acid], the IC50 was less than 50 nM.

For the compound `COCCN(CCCCc1ccc2c(n1)NCCC2)CC[C@H](Nc1ncnc2cc(F)c(F)cc12)C(=O)O` [Compound 21, (S)-2-((6,7-difluoroquinazolin-4-yl)amino)-4-((2-methoxyethyl) (4-(5,6,7,8-tetrahydro-1,8-naphthyridin-2-yl)butyl)amino) butanoic acid], the IC50 was less than 50 nM.

On to `CN(C)C(=O)CN(CCCCc1ccc2c(n1)NCCC2)CC[C@H](Nc1ccnc(C(F)(F)F)n1)C(=O)O` [Compound 145, (S)-4-((2-(dimethylamino)-2-oxoethyl) (4-(5,6,7,8-tetrahydro-1,8-naphthyridin-2-yl)butyl)amino)-2-((2-(trifluoromethyl)pyrimidin-4-yl)amino) butanoic acid], for which the IC50 is less than 50 nM.

`COCCN(CCCCc1ccc2c(n1)NCCC2)CC[C@H](Nc1cc(-n2cccn2)ncn1)C(=O)O` [Compound 44, (S)-2-((6-(1H-pyrazol-1-yl)pyrimidin-4-yl)amino)-4-((2-methoxyethyl) (4-(5,6,7,8-tetrahydro-1,8-naphthyridin-2-yl)butyl)amino) butanoic acid]: the IC50 was less than 50 nM.

For `COCCN(CCCCc1ccc2c(n1)NCCC2)CC[C@H](Nc1ncnc2c(Cl)cccc12)C(=O)O` [Compound 38, (S)-2-((8-chloroquinazolin-4-yl)amino)-4-((2-methoxyethyl) (4-(5,6,7,8-tetrahydro-1,8-naphthyridin-2-yl)butyl)amino) butanoic acid], the IC50 is less than 50 nM.

For the compound `CO[C@@H](C)CN(CCCCc1ccc2c(n1)NCCC2)CC[C@H](Nc1ncnc2ccccc12)C(=O)O` [Compound 25, (S)-4-(((S)-2-methoxypropyl) (4-(5,6,7,8-tetrahydro-1,8-naphthyridin-2-yl)butyl)amino)-2-(quinazolin-4-ylamino) butanoic acid], the half-maximal inhibitory concentration (IC50) is less than 50 nM.

Take `COCCN(CCCCc1ccc2c(n1)NCCC2)CC[C@H](Nc1nc(C)nc2cc(F)ccc12)C(=O)O` [Compound 12, (S)-2-((7-fluoro-2-methylquinazolin-4-yl)amino)-4-((2-methoxyethyl) (4-(5,6,7,8-tetrahydro-1,8-naphthyridin-2-yl)butyl)amino) butanoic acid]: the IC50 was less than 50 nM.

For the compound `Cn1ncc2c(N[C@@H](CCN(CCCCc3ccc4c(n3)NCCC4)CC(F)F)C(=O)O)ncnc21` [Compound 88, (S)-4-((2,2-difluoroethyl) (4-(5,6,7,8-tetrahydro-1,8-naphthyridin-2-yl)butyl)amino)-2-((1-methyl-1H-pyrazolo[3,4-d]pyrimidin-4-yl)amino) butanoic acid], the IC50 is more than 1000 nM.

For the compound `O=C(O)[C@H](CCN(CCCCc1ccc2c(n1)NCCC2)CCOc1cc(F)cc(F)c1)Nc1ncnc2ccccc12` [Compound 47, (S)-4-((2-(3,5-difluorophenoxy)ethyl) (4-(5,6,7,8-tetrahydro-1,8-naphthyridin-2-yl)butyl)amino)-2-(quinazolin-4-ylamino) butanoic acid], the IC50 was less than 50 nM.

For `O=C(O)[C@H](CCN(CCCCc1ccc2c(n1)NCCC2)CCOc1ccc(F)cc1)Nc1ncc(C(F)(F)F)cn1` [Compound 139, (S)-4-((2-(4-fluorophenoxy)ethyl) (4-(5,6,7,8-tetrahydro-1,8-naphthyridin-2-yl)butyl)amino)-2-((5-(trifluoromethyl)pyrimidin-2-yl)amino) butanoic acid], the IC50 was less than 50 nM.

Regarding `Cc1ncccc1OCCN(CCCCc1ccc2c(n1)NCCC2)CC[C@H](Nc1ncnc2ccccc12)C(=O)O` [Compound 52, (S)-4-((2-((2-methylpyridin-3-yl)oxy)ethyl) (4-(5,6,7,8-tetrahydro-1,8-naphthyridin-2-yl)butyl)amino)-2-(quinazolin-4-ylamino) butanoic acid], the IC50 is less than 50 nM.

`O=C(O)[C@H](CCN(CCO)CCCCc1ccc2c(n1)NCCC2)Nc1ncnc2ccccc12` [Compound 75, (S)-4-((2-hydroxyethyl) (4-(5,6,7,8-tetrahydro-1,8-naphthyridin-2-yl)butyl)amino)-2-(quinazolin-4-ylamino) butanoic acid]: the IC50 is less than 50 nM.

In the case of `COCCN(CCCCc1ccc2c(n1)NCCC2)CC[C@H](Nc1ncnc2ncccc12)C(=O)O` [Compound 11, (S)-4-((2-methoxyethyl) (4-(5,6,7,8-tetrahydro-1,8-naphthyridin-2-yl)butyl)amino)-2-(pyrido[2,3-d]pyrimidin-4-ylamino) butanoic acid], the IC50 is less than 50 nM.

`O=C(O)[C@H](CCN(CCCCc1ccc2c(n1)NCCC2)CCC(F)F)Nc1ncnc2ccccc12` [Compound 29, (S)-4-((3,3-difluoropropyl) (4-(5,6,7,8-tetrahydro-1,8-naphthyridin-2-yl)butyl)amino)-2-(quinazolin-4-ylamino) butanoic acid]: the IC50 is less than 50 nM.

As for `O=C(O)[C@H](CCN(CCCCc1ccc2c(n1)NCCC2)CCOC(F)F)Nc1ncnc2ccccc12` [Compound 35, (S)-4-((2-(difluoromethoxy)ethyl) (4-(5,6,7,8-tetrahydro-1,8-naphthyridin-2-yl)butyl)amino)-2-(quinazolin-4-ylamino) butanoic acid], the IC50 is less than 50 nM.

Turning to `O=C(O)[C@H](CCN(CCCCc1ccc2c(n1)NCCC2)CCOc1cncc(F)c1)Nc1ncnc2cccnc12` [Compound 60, (S)-4-((2-((5-fluoropyridin-3-yl)oxy)ethyl) (4-(5,6,7,8-tetrahydro-1,8-naphthyridin-2-yl)butyl)amino)-2-(pyrido[3,2-d]pyrimidin-4-ylamino) butanoic acid], the IC50 was less than 50 nM.

In the case of `O=C(O)[C@H](CCN(CCCCc1ccc2c(n1)NCCC2)CCOCC(F)(F)F)Nc1ncnc2cccnc12` [Compound 51, (S)-2-(pyrido[3,2-d]pyrimidin-4-ylamino)-4-((4-(5,6,7,8-tetrahydro-1,8-naphthyridin-2-yl)butyl) (2-(2,2,2-trifluoroethoxy)ethyl)amino) butanoic acid], the IC50 was less than 50 nM.

In the case of `COC[C@@H](F)CN(CCCCc1ccc2c(n1)NCCC2)CC[C@H](Nc1cc(-c2ccccc2)ncn1)C(=O)O` [Compound 128, (S)-4-(((S)-2-fluoro-3-methoxypropyl) (4-(5,6,7,8-tetrahydro-1,8-naphthyridin-2-yl)butyl)amino)-2-((6-phenylpyrimidin-4-yl)amino) butanoic acid], the IC50 was more than 1000 nM.

For `Cc1nc(N[C@@H](CCN(CCCCc2ccc3c(n2)NCCC3)CCOc2ccc(F)cc2)C(=O)O)c2ccc(F)cc2n1` [Compound 40, (S)-2-((7-fluoro-2-methylquinazolin-4-yl)amino)-4-((2-(4-fluorophenoxy)ethyl) (4-(5,6,7,8-tetrahydro-1,8-naphthyridin-2-yl)butyl)amino) butanoic acid], the IC50 is less than 50 nM.
